In patent publication US20260347319A1, “YAP/TAZ-TEAD ONCOPROTEINS INHIBITORS” (BridGene Biosciences, Inc., priority 2022, published 2026):

What was measured:
Assay type in all cases: cell-based
TEAD1 = experiment: MCF-7 TEAD1-luciferase reporter assay (MCF7-TEAD-Luc); conditions: MCF7 cells, overnight; for IC50: Homo sapiens; for TEAD1-Luc MCF7: Max Inhibition: % of DMSO-treated control
Description: The ability of compounds to inhibit TEAD-dependent transcription was assessed in the MCF7-TEAD-Luc reporter assay (BPS #60618). Cells were seeded at 10,000 cells in 200 μL per well into white wall, clear bottom 96-well plates (Corning #3610) and incubated at 37° C. for 24 hours, then treated with serial diluted compounds overnight, and luciferase signal was measured using the ONE-Step Luciferase Assay System (BPS #60690) using an EnSight Multimode plate reader (PerkinElmer, model #MLDHH34000000, integration time 100 ms) with Kaleido 3.0. software. For data analysis, dose-dependent curves were plotted as “% inhibition” (% of DMSO-treated control wells), and were fitted by four-parametric model in GraphPad Prism to obtain IC50 values.

NCI-H226 cells = experiment: Cell proliferation and viability assay (CPA) in NCI-H226 cells; conditions: up to 6 d
Description: Compound potency and efficacy in inhibiting cell proliferation and viability was assessed in multiple cell lines. For example, NCI-H226 cells (ATCC #CRL-5826) were seeded at 2000 cells in 200 μL medium per well of a 96-well plate (Corning #3610) and incubated at 37° C. for 24 hours, then treated with serial diluted compounds for up to 6 d. Viable cells were measured by CellTiter-Glo 2.0 Cell Viability Assay (Promega #G9243), and the luminescence signal was read using an EnSight Multimode plate reader (PerkinElmer, model 9MLDHH34000000, integration time 100 ms) with Kaleido 3.0. software. For data analysis, dose-dependent curves were plotted as “inhibition” (% of DMSO-treated control wells), and were fitted by four-parametric model in GraphPad Prism to obtain IC50 values. […]

H2052 cells = experiment: Cell proliferation and viability assay (CPA) in H2052 cells; conditions: for IC50: Homo sapiens, NCI-H2052, read-out: CPA H2052 IC50 Ave
Description: Compound potency and efficacy in inhibiting cell proliferation and viability was assessed in multiple cell lines. For example, NCI-H226 cells (ATCC #CRL-5826) were seeded at 2000 cells in 200 μL medium per well of a 96-well plate (Corning #3610) and incubated at 37° C. for 24 hours, then treated with serial diluted compounds for up to 6 d. Viable cells were measured by CellTiter-Glo 2.0 Cell Viability Assay (Promega #G9243), and the luminescence signal was read using an EnSight Multimode plate reader (PerkinElmer, model 9MLDHH34000000, integration time 100 ms) with Kaleido 3.0. software. For data analysis, dose-dependent curves were plotted as “inhibition” (% of DMSO-treated control wells), and were fitted by four-parametric model in GraphPad Prism to obtain IC50 values.
Alternatively, cells were plated at 2000 cells in 200 μL medium per well of a 96-well plate (Corning #3585) overnight, treated with compound for 7 days, cell density images taken by Incycte S3 live cell analysis instrument (Sartorius) every 24 hours at the same time. Images were analyzed by Incucyte's AI-driven software to get C “% confluence” for every image. Dose-dependent curves were plotted as “% inhibition” (% o of DMSO-treated control wells) and were fitted by four-parametric model in GraphPad Prism to obtain IC50 values.

Row | SMILES | IC50 (TEAD1) | TEAD1-Luc MCF7: Max Inhibition (TEAD1) | IC50 (NCI-H226 cells; Homo sapiens, 144 h, read-out: CPA NCI-H226 IC50 Ave) | CPA NCI-H226 Max Inh Ave (NCI-H226 cells) | CPA H2052 Max Inh Ave (H2052 cells) | IC50 (H2052 cells)
1 | C=CC(=O)N1CC[C@](C#Cc2ccc(C(F)(F)F)cc2)(OC)C1 (single isomer, unassigned) [Example 59, (R*)-1-(3-methoxy-3-((4-(trifluoromethyl)phenyl)ethynyl)pyrrolidin-1-yl)prop-2-en-1-one] | 10 to 100 nM | A (A ≥ 75%) | ≤ 100 nM | A (A ≥ 75%) | B (75% > B ≥ 50%) | 100 to 500 nM
2 | C=CC(=O)N1CC[C@@H](/C=C/c2ccc(C(F)(F)F)cc2)C1 [Example 9] | 10 to 100 nM | – | – | – | – | 100 to 500 nM
3 | C=CC(=O)N1CC(/C=C\c2cnc(C(F)(F)F)s2)C1 [Example 12] | 10 to 100 nM | – | – | – | – | 100 to 500 nM
4 | C=CC(=O)N1CC(/C=C/c2cccc(C(F)(F)F)c2)C1 [Example 14] | 10 to 100 nM | B (75% > B ≥ 50%) | – | – | B (75% > B ≥ 50%) | 100 to 500 nM
5 | C=CC(=O)N1CC(c2cc3ccc(C(F)(F)F)cc3n2C)C1 [Example 53, 1-{3-[1-methyl-6-(trifluoromethyl)indol-2-yl]azetidin-1-yl}prop-2-en-1-one] | 100 to 500 nM | B (75% > B ≥ 50%) | – | – | – | –
6 | C=CC(=O)N1CCC(/C=C/c2cccc(C(F)(F)F)c2)CC1 [Example 54, (E)-1-(4-(3-(trifluoromethyl)styryl)piperidin-1-yl)prop-2-en-1-one] | 100 to 500 nM | B (75% > B ≥ 50%) | – | – | – | –
7 | C=CC(=O)N1CCC(/C=C\c2cccc(C(F)(F)F)c2)CC1 [Example 55, (Z)-1-(4-(3-(trifluoromethyl)styryl)piperidin-1-yl)prop-2-en-1-one] | > 500 nM | C (50% > C ≥ 2%) | – | – | – | –
8 | C=CC(=O)N1CC(/C=C/c2ccc(C(F)(F)F)cc2)C(n2cccn2)C1 (stereo not shown) [Example 70] | 10 to 100 nM | A (A ≥ 75%) | – | – | – | –
9 | C=CC(=O)N1CCC(C#Cc2ccc(C(F)(F)F)cc2)(OC)CC1 [Example 71, 1-(4-methoxy-4-((4-(trifluoromethyl)phenyl)ethynyl)piperidin-1-yl)prop-2-en-1-one] | 10 to 100 nM | B (75% > B ≥ 50%) | – | – | – | –
10 | C=CC(=O)N1CCC(F)(C#Cc2ccc(C(F)(F)F)cc2)CC1 [Example 72, 1-(4-fluoro-4-((4-(trifluoromethyl)phenyl)ethynyl)piperidin-1-yl)prop-2-en-1-one] | 10 to 100 nM | B (75% > B ≥ 50%) | – | – | – | –
11 | C=CC(=O)N1CCC(O)(C#Cc2ccc(C(F)(F)F)cc2)CC1 [Example 73, 1-(4-hydroxy-4-((4-(trifluoromethyl)phenyl)ethynyl)piperidin-1-yl)prop-2-en-1-one] | 10 to 100 nM | A (A ≥ 75%) | – | – | – | –
12 | C=CC(=O)N1CCC(C)(C#Cc2ccc(C(F)(F)F)cc2)CC1 [Example 74, 1-(4-methyl-4-((4-(trifluoromethyl)phenyl)ethynyl)piperidin-1-yl)prop-2-en-1-one] | ≤ 10 nM | B (75% > B ≥ 50%) | – | – | – | –
13 | C=CC(=O)N1CCCC(C#Cc2cccc(C(F)(F)F)c2)C1 (stereo not shown) [Example 75, 1-(3-((3-(trifluoromethyl)phenyl)ethynyl)piperidin-1-yl)prop-2-en-1-one] | 10 to 100 nM | A (A ≥ 75%) | – | – | – | –
14 | C=CC(=O)N1CCCC(C#Cc2ccc(C(F)(F)F)cc2)C1 (stereo not shown) [Example 76, 1-(3-((4-(trifluoromethyl)phenyl)ethynyl)piperidin-1-yl)prop-2-en-1-one] | 10 to 100 nM | A (A ≥ 75%) | – | – | – | –
15 | CC#CC(=O)N1CC(/C=C/c2ccc(C(F)(F)F)cc2)C1 [Example 77, (E)-1-(3-(4-(trifluoromethyl)styryl)azetidin-1-yl)but-2-yn-1-one] | 10 to 100 nM | B (75% > B ≥ 50%) | – | – | – | –
16 | C#CC(=O)N1CC(/C=C/c2ccc(C(F)(F)F)cc2)C1 [Example 78, (E)-1-(3-(4-(trifluoromethyl)styryl)azetidin-1-yl)prop-2-yn-1-one] | 100 to 500 nM | A (A ≥ 75%) | – | – | – | –
17 | C=CC(=O)N1CCC(C#Cc2cccc(C(F)(F)F)c2)CC1 [Example 79, 1-(4-((3-(trifluoromethyl)phenyl)ethynyl)piperidin-1-yl)prop-2-en-1-one] | 10 to 100 nM | B (75% > B ≥ 50%) | – | – | – | –
18 | C=CC(=O)N1CCC(C#Cc2ccc(C(F)(F)F)cc2)CC1 [Example 80, 1-(4-((4-(trifluoromethyl)phenyl)ethynyl)piperidin-1-yl)prop-2-en-1-one] | 10 to 100 nM | A (A ≥ 75%) | – | – | – | –
19 | CC#CC(=O)N1CC[C@H](/C=C/c2ccc(C(F)(F)F)cc2)C1 [Example 81, (R,E)-1-(3-(4-(trifluoromethyl)styryl)pyrrolidin-1-yl)but-2-yn-1-one] | 100 to 500 nM | B (75% > B ≥ 50%) | – | – | – | –
20 | C#CC(=O)N1CC[C@H](/C=C/c2ccc(C(F)(F)F)cc2)C1 [Example 82, (R, E)-1-(3-(4-(trifluoromethyl)styryl)pyrrolidin-1-yl)prop-2-yn-1-one] | 10 to 100 nM | A (A ≥ 75%) | – | – | – | –
21 | C=CC(=O)N1CC[C@H](C(C)(C)/C=C/c2ccc(C(F)(F)F)cc2)C1 [Example 86, (R, E)-1-(3-(2-methyl-4-(4-(trifluoromethyl)phenyl)but-3-en-2-yl)pyrrolidin-1-yl)prop-2-en-1-one] | 10 to 100 nM | B (75% > B ≥ 50%) | – | – | – | –
22 | C=CC(=O)N1CC[C@H](/C=C\c2ccc(C(F)(F)F)cc2)C1 [Example 87, (R, Z)-1-(3-(4-(trifluoromethyl)styryl)pyrrolidin-1-yl)prop-2-en-1-one] | 100 to 500 nM | B (75% > B ≥ 50%) | – | – | – | –
23 | C=CC(=O)N1CCC(C/C=C/c2ccc(C(F)(F)F)cc2)CC1 [Example 90, (E)-1-(4-(3-(4-(trifluoromethyl)phenyl)allyl)piperidin-1-yl)prop-2-en-1-one] | 10 to 100 nM | B (75% > B ≥ 50%) | – | – | – | –
24 | C=CC(=O)N1CCC(/C=C/C(O)c2ccc(C(F)(F)F)cc2)C1 (stereo not shown) [Example 99, (E)-1-(3-(3-hydroxy-3-(4-(trifluoromethyl)phenyl)prop-1-en-1-yl)pyrrolidin-1-yl)prop-2-en-1-one] | 10 to 100 nM | B (75% > B ≥ 50%) | – | – | – | –
25 | C=CC(=O)N1CCC(/C=C\C(O)c2ccc(C(F)(F)F)cc2)C1 (stereo not shown) [Example 100, (Z)-1-(3-(3-hydroxy-3-(4-(trifluoromethyl)phenyl)prop-1-en-1-yl)pyrrolidin-1-yl)prop-2-en-1-one] | 10 to 100 nM | B (75% > B ≥ 50%) | – | – | – | –
26 | C=CC(=O)N1CCC(/C=C\C(OC)c2ccc(C(F)(F)F)cc2)C1 (stereo not shown) [Example 101, (Z)-1-(3-(3-methoxy-3-(4-(trifluoromethyl)phenyl)prop-1-en-1-yl)pyrrolidin-1-yl)prop-2-en-1-one] | 100 to 500 nM | B (75% > B ≥ 50%) | – | – | – | –
27 | C=CC(=O)N1CCC(/C=C/C(OC)c2ccc(C(F)(F)F)cc2)C1 (stereo not shown) [Example 102, (E)-1-(3-(3-methoxy-3-(4-(trifluoromethyl)phenyl)prop-1-en-1-yl)pyrrolidin-1-yl)prop-2-en-1-one] | 10 to 100 nM | C (50% > C ≥ 2%) | – | – | – | –
28 | C=CC(=O)N1CCC2(C=C(c3ccc(C(F)(F)F)cc3)OC2)C1 (stereo not shown) [Example 105, 1-(3-(4-(trifluoromethyl)phenyl)-2-oxa-7-azaspiro[4.4]non-3-en-7-yl)prop-2-en-1-one] | 10 to 100 nM | A (A ≥ 75%) | – | – | – | –
29 | C=CC(=O)N1CCC2(CC(/C=C/c3ccc(C(F)(F)F)cc3)C2)C1 (stereo not shown) [Example 106, (E)-1-(2-(4-(trifluoromethyl)styryl)-6-azaspiro[3.4]octan-6-yl)prop-2-en-1-one] | 10 to 100 nM | B (75% > B ≥ 50%) | – | – | – | –
